Results on eight molecules are retold here after the NIST ThermoML archive (doi:10.1016/j.fluid.2013.06.048).

Where “and” joins values, the source holds several entries; their conditions need not be identical. Equal values may be shown once. ± gives the expanded uncertainty stated by the source.

For the data set the following is noted: Liquid; pulse-heating method.

`OCCCCCO` [1,5-pentanediol]: the Critical pressure came out at 4000 ± 160 kPa and the Critical temperature is 731 ± 24 K.
For `OCCCCCCCCO` [1,8-octanediol], in that order: 2700 ± 160 kPa and 752 ± 24 K.
Take `OCCCCCCCCCO` [1,9-nonanediol]: the Critical pressure amounted to 2400 ± 160 kPa and the Critical temperature is 760 ± 24 K.
For `OCCCCCCCCCCCCO` [1,12-dihydroxydodecane], in that order: 1930 ± 160 kPa and 798 ± 24 K.
In the case of `OCCCO` [propan-1,3-diol], the Critical pressure is 6380 ± 160 kPa and 6300 ± 200 kPa and 6550 ± 160 kPa; the Critical temperature is 721 ± 24 K and 722 ± 24 K and 718.2 ± 24 K.
Consider `OCCCCCCCCCCO` [1,10-decanediol], for which the Critical pressure is given as 2200 ± 160 kPa and the Critical temperature amounted to 770 ± 24 K.
In the case of `OCCCCO` [1,4-butanediol], the Critical pressure is 5400 ± 160 kPa and 6220 ± 160 kPa and 5520 ± 160 kPa; the Critical temperature is 728 ± 24 K and 727 ± 24 K and 723.8 ± 24 K.
Take `OCCCCCCO` [1,6-hexanediol]: the Critical pressure is 3400 ± 160 kPa and 4080 ± 160 kPa.
